According to patent US4393228A, “Epoxysuccinic acid derivatives” (Taisho Pharmaceutical Co., Ltd., priority 1977, dated 1983):

What follows are molecules tested against T1, papain (Carica papaya, UniProt P00784) (assay: Papain inhibitory activity (milk casein digestion)). Conditions: papain 80 μg/ml 0.5 ml, cysteine, pH 6.8, 1% milk casein, 40° C., 10 minutes.
T1 construct: purchased Sigma Chem. Co
T1 sequence (P00784 134-345): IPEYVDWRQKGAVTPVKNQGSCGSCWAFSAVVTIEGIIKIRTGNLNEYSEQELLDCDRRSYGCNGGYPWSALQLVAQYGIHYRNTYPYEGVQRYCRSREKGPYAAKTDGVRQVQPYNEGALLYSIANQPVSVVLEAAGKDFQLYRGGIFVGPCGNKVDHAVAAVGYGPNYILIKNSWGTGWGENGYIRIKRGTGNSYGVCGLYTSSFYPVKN
Assay type: biochemical
Method in brief: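 Papain (80 μg/ml stock) preincubated 15 min at 40 °C with inhibitor, cysteine/EDTA activator and phosphate buffer pH 6.8. Then 1% milk casein digested 10 min at 40 °C, stopped with trichloroacetic acid and filtered; filtrate absorbance at 280 nm gives percent inhibition versus no-inhibitor control.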

Row | Structure (SMILES) | ID50 (amount of inhibitor for 50% inhibition)
1 | Cc1cccc(COC(=O)[C@@H]2O[C@H]2C(=O)OCc2cccc(C)c2Br)c1Br (relative stereo) [EP-97, di-2'-bromo-3'-methylbenzyl epoxysuccinate] | 3.20 γ
2 | C=CCOC(=O)C1OC1C(=O)N[C@@H](Cc1ccc(O)cc1)C(=O)OCc1ccccc1 (stereo partly drawn) [EP-147, N-(3-allyloxycarbonyloxirane-2-carbonyl)-L-tyrosine benzyl ester] | 3.40 γ
3 | CCOC(=O)C1OC1C(=O)N[C@@H](Cc1c[nH]c2ccccc12)C(=O)OCC (stereo partly drawn) [EP-151, N-(3-ethoxycarbonyloxirane-2-carbonyl)-L-tryptophan ethyl ester] | 7.20 γ
4 | CCOC(=O)[C@H]1O[C@@H]1C(=O)NCC(=O)OCc1ccccc1 (relative stereo) [EP-154, N-(3-ethoxycarbonyloxirane-2-carbonyl)-glycine benzyl ester] | 43.90 γ
5 | CCOC(=O)C1OC1C(=O)N[C@@H](CCCNC(=O)c1ccccc1)C(=O)OCc1ccccc1 (stereo partly drawn) [EP-173, N^α -(3-ethoxycarbonyloxirane-2-carbonyl)-N^δ -benzoyl-L-ornithine benzyl ester] | 5.80 γ
6 | CCOC(=O)[C@@H](NC(=O)C1OC1C(=O)OCc1cccc2ccccc12)C(C)C (stereo partly drawn) [EP-219] | 2.12 γ
7 | O=C(O[C@H]1CC[C@H](Cl)CC1)[C@@H]1O[C@H]1C(=O)O[C@H]1CC[C@H](Cl)CC1 (relative stereo) [EP-19, di-4'-trans-chlorocyclohexyl epoxysuccinate] | 2.01 γ
8 | O=C(O)[C@H]1O[C@@H]1C(=O)OCc1cccc(F)c1 (relative stereo) [EP-122, m-fluorobenzyl potassium epoxysuccinate] | 0.10 γ
9 | CCOC(=O)C1OC1C(=O)N[C@@H](CCC(N)=O)C(=O)OCc1ccccc1 (stereo partly drawn) [EP-168, N-(3-ethoxycarbonyloxirane-2-carbonyl)-L-glutamine benzyl ester] | 12.50 γ
10 | CC(OC(=O)C1OC1C(=O)O)C1CCCC1 (stereo not drawn) [EP-46, 1-cyclopentaneethyl potassium epoxysuccinate] | 0.08 γ
11 | O=C(OCCC1CCCC1)[C@@H]1O[C@H]1C(=O)OCCC1CCCC1 (relative stereo) [EP-59, di-2-cyclopentaneethyl epoxysuccinate] | 0.18 γ
12 | O=C(O)[C@@H]1O[C@H]1C(=O)OC1CC2CCC1CC2 (relative stereo) [EP-52, bicyclo [2,2,2] octyl potassium epoxysuccinate] | 0.07 γ
13 | O=C(O)[C@@H]1O[C@H]1C(=O)OCCC12CC3CC(CC(C3)C1)C2 (relative stereo) [EP-50, 2-(1-adamantane)ethyl potassium epoxysuccinate] | 0.09 γ
14 | O=C(O)C1OC1C(=O)N[C@@H](Cc1c[nH]c2ccccc12)C(=O)O (stereo partly drawn) [EP-177, N-(3-carboxyoxirane-2-carbonyl)-L-tryptophan] | 1.50 γ
15 | O=C(O)[C@@H]1O[C@H]1C(=O)OCC1CC1 (relative stereo) [EP-40, cyclopropanemethyl potassium epoxysuccinate] | 0.34 γ
16 | O=C(OCCC1CCCCC1)[C@@H]1O[C@H]1C(=O)OCCC1CCCCC1 (relative stereo) [EP-61, di-2-cyclohexaneethyl epoxysuccinate] | 1.18 γ
17 | CCOC(=O)C1OC1C(=O)N[C@@H](CCCCNC(=O)OCc1ccc(OC)cc1)C(=O)OCc1ccccc1 (stereo partly drawn) [EP-169, N^α -(3-ethoxycarbonyloxirane-2-carbonyl)-N^ε -p-methoxybenzyloxycarbonyl-L-lysine benzyl ester] | 26.50 γ

Row | Structure (SMILES) | ID50 (amount of inhibitor for 50% inhibition)
18 | COC(=O)[C@H](CCCNC(=O)OCc1ccccc1)NC(=O)C1OC1C(=O)[O-].[K+] (stereo partly drawn) [EP-198, N^α -(3-carboxyoxirane-2-carbonyl)-N^δ -carbobenzoxy-L-ornithine methyl ester potassium salt] | 0.15 γ
19 | O=C(O)[C@@H]1O[C@H]1C(=O)OCc1ccc2c(c1)OCO2 (relative stereo) [EP-104, methylene-3',4'-dioxybenzyl potassium epoxysuccinate] | 0.36 γ
20 | C[C@@H]1CCCC[C@H]1OC(=O)[C@@H]1O[C@H]1C(=O)O (relative stereo) [EP-6, 2'-trans-methylcyclohexyl potassium epoxysuccinate] | 0.09 γ
21 | CCOC(=O)C1OC1C(=O)N[C@@H](CO)C(=O)OCC (stereo partly drawn) [EP-186, N^α -(3-ethoxycarbonyloxirane-2-carbonyl)-L-serine ethyl ester] | 23.15 γ
22 | O=C(O)C1OC1C(=O)OC1CCCC(Br)C1 (stereo not drawn) [EP-10, 3'-cis-bromocyclohexyl potassium epoxysuccinate] | 0.06 γ
23 | O=C(O)[C@H]1O[C@@H]1C(=O)OCc1cc(Cl)ccc1Cl (relative stereo) [EP-128, 2',5'-dichlorobenzyl potassium epoxysuccinate] | 0.11 γ
24 | Cc1cc(C)c(COC(=O)[C@@H]2O[C@H]2C(=O)OCc2c(C)cc(C)cc2C)c(C)c1 (relative stereo) [EP-95, di-2',4',6'-trimethylbenzyl epoxysuccinate] | 4.20 γ
25 | O=C(OCC1C=CCC1)C1OC1C(=O)OCC1C=CCC1 (stereo not drawn) [EP-71, di-2-cyclopentenemethyl epoxysuccinate] | 0.40 γ
26 | O=C(OCc1ccc2c(c1)OCO2)[C@@H]1O[C@H]1C(=O)OCc1ccc2c(c1)OCO2 (relative stereo) [EP-103, di-methylene-3',4'-dioxybenzyl epoxysuccinate] | 1.06 γ
27 | C[C@@H]1CCCC[C@H]1OC(=O)[C@@H]1O[C@H]1C(=O)O[C@@H]1CCCC[C@H]1C (relative stereo) [EP-5, di-2'-trans-methylcyclohexyl epoxysuccinate] | 2.36 γ
28 | O=C(OCC1CCCC1)[C@@H]1O[C@H]1C(=O)OCC1CCCC1 (relative stereo) [EP-43, dicyclopentanemethyl epoxysuccinate] | 0.45 γ
29 | CC1CCC(OC(=O)C2OC2C(=O)O)C1 (stereo not drawn) [EP-32, 3'-trans-methylcyclopentyl potassium epoxysuccinate] | 0.09 γ
30 | O=C(O)[C@@H]1O[C@H]1C(=O)OCc1cccc2c(Br)cccc12 (relative stereo) [EP-86, 5'-bromo-1'-naphthylmethyl potassium epoxysuccinate] | 0.27 γ
31 | O=C(OCc1ccccc1Cl)[C@@H]1O[C@H]1C(=O)OCc1ccccc1Cl (relative stereo) [EP-107, di-o-chlorobenzyl epoxysuccinate] | 0.15 γ
32 | C[C@H]1CC[C@H](OC(=O)[C@@H]2O[C@H]2C(=O)O)CC1 (relative stereo) [EP-16, 4'-trans-methylcyclohexyl potassium epoxysuccinate] | 0.08 γ
33 | O=C(NCCCC[C@H](NC(=O)C1OC1C(=O)OCCc1ccccc1)C(=O)OCc1ccccc1)OCc1ccccc1 (stereo partly drawn) [EP-187, N^α -(3-phenethyloxycarbonyloxirane-2-carbonyl)-N^ε -carbobenzoxy-L-lysine benzyl ester] | 1.40 γ
